Experimental findings from patent publication US10254273B2, “Method and kit for assessment of sodium channel-related anti- or pro-arrhythmic potential of compounds” (RUPRECHT-KARLS-UNIVERSITAET HEIDELBERG, priority 2014, dated 2019) are described below.

This assay concerns the target T1, cardiac sodium channels Nav1.5 in the intercalated discs of cardiomyocytes (Mus musculus, UniProt Q9JJV9).
T1 construct: The heart was harvested and perfused in the Langendorff system; endogenous in cells; host or cells: primary adult mouse cardiomyocytes isolated from heart by Langendorff perfusion
Description: Nav1.5 density change in intercalated discs of cardiomyocytes (immunocytochemistry, confocal microscopy). As to conditions: test compound at a concentration of 100 μM or higher vs. untreated sample, p<0.05. It counts as cell-based.
Description: Briefly, the mice were injected with 200 IU heparin i.p. prior to sacrifice. The thoracic chamber was opened and a cannula with perfusion solution was inserted from the atria. The heart was harvested and perfused in the Langendorff system with Perfusion Buffer at 37° C. for 5 min, followed by Digestion Buffer until the heart muscle was pale and some signs of extracellular matrix dissociation appeared. The heart was perfused for additional 5 min with Perfusion Buffer to stop the dissociation. The cardiomyocytes were mechanically dissociated in TB-A and then plated on ECM-coated (Sigma cat. no. E-1270) petri dish (Zell-Kontakt cat. no. 5160-30). […]
Confocal images of red and green immunofluorescence of stained cardiomyocytes were acquired, e.g. on a Leica confocal laser scanning unit TCS NT, which is coupled to a Leica DM IRB microscope. […] Fluorescence signals of Nav1.5 staining were recorded at 20%, 50% and 80% laser intensity, and fluorescence signals of cadherin was recorded at 80% laser intensity to generate the Region of Interest (ROI) (modified from Yampolsky et al., 2010, a). All images were digitally saved and later processed with Image) (NIH, Bethesda, Md., USA) software using proprietary quantification methods and standard Image) plug-ins.
ROI were set as defined by the fluorescence signals of the cadherin staining, which represented the intercalated discs. […]

T1 sequence (Q9JJV9 whole entry, the tested form may be a part): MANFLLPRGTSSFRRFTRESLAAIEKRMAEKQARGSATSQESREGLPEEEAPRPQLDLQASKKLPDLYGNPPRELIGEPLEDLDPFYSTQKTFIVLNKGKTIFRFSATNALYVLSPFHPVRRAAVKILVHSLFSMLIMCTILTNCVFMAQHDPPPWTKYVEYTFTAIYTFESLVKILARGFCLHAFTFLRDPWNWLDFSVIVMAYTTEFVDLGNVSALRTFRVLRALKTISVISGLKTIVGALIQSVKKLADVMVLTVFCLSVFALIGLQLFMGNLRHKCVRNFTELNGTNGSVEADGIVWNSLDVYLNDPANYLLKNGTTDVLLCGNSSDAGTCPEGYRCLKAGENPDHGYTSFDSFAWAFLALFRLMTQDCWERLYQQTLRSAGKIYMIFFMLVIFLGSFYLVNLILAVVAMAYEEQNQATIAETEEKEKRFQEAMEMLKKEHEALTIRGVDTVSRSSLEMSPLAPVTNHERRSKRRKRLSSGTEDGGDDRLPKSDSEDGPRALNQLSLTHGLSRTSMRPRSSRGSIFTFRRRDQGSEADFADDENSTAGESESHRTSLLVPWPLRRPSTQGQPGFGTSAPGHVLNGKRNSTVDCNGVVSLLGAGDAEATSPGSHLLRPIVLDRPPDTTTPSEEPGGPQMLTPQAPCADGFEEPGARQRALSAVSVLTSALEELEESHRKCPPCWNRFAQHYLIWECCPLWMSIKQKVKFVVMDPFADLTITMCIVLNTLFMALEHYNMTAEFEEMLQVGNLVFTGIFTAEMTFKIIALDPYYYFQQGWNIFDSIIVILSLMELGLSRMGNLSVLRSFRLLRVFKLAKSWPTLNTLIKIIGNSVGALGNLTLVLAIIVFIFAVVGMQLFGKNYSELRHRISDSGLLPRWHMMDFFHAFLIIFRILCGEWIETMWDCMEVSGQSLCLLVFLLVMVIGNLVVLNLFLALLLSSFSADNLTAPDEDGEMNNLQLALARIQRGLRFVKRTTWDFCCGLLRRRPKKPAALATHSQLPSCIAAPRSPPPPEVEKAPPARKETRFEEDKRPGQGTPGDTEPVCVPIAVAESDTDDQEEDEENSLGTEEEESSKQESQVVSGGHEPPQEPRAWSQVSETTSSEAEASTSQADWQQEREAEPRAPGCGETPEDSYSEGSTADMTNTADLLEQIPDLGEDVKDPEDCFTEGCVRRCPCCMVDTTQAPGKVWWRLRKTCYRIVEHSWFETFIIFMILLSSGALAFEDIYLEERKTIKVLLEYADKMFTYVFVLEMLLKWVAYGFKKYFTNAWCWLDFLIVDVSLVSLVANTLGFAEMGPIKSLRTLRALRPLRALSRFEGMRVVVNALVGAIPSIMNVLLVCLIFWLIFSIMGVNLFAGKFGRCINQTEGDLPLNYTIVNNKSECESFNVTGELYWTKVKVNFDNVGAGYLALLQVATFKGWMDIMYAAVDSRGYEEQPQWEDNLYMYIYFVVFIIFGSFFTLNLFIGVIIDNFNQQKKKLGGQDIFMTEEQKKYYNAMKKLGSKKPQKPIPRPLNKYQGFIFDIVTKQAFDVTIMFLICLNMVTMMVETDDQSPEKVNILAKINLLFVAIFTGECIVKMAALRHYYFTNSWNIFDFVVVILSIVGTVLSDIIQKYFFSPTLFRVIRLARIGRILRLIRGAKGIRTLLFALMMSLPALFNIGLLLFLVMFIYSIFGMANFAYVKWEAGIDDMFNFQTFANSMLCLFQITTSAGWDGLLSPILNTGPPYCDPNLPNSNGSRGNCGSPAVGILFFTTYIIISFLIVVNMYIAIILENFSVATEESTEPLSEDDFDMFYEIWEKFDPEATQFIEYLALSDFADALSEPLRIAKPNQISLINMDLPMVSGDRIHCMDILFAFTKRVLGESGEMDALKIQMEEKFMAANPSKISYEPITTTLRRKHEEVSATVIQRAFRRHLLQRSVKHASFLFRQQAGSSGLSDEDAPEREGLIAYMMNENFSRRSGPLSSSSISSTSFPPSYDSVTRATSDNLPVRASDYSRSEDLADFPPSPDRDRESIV

Regarding `O=C(NCC1CCCCN1)c1cc(OCC(F)(F)F)ccc1OCC(F)(F)F` (stereo not shown) [flecainide], the “change of the Nav1.5 density in comparison to the untreated sample” value was “significant change”.
